Data taken from patent US6630478B2, “Methods for treatment of drug-induced peripheral neuropathy” (NeoTherapeutics, Inc., priority 2000, dated 2003).
Entries after “also recorded” stand apart in the source; their conditions may differ.

Key:
[1] = test system: dorsal root ganglion neurons; experiment: Cisplatin toxicity in cultured dorsal root ganglion neurons, survival rate by acid phosphatase activity; assay type: cell-based, rat
Procedure: The dorsal root ganglion neurons were obtained from rat fetuses (Wistar rats; E15; Elevage Janvier, Le Genest St Isle). They were dissected and incubated in trypsin 1× (Gibco; Life Technologies, Cergy-Pontoise, France) for 30 min at 37° C. The reaction was stopped by addition of free Hanks balanced salt solution containing calcium and magnesium; (HBSS^+; Gibco) added with 10% of fetal bovine serum (FBS; Gibco) and 0.5 mg/ml DNAse I (Boehringer Mannheim, Meylan, France). The suspension was triturated with a 10-ml pipette and using a needle seringe. After centrifugation, the dissociated cells were resuspended in DMEM containing 10% FBS, 2% of chick embryos extract (Gibco), 1% antibiotics (Gibco) and NGF (Tebu, Le Perray en Yvelines, France) 3 ng/ml final.
Viable cells were counted and seeded at ±50,000 cells /well in 96 well-plates (Nunclon, Life Technologies) coated with poly-L-lysine (0.01 mg/ml, Sigma). Cells were maintained in a humidified incubator at 37° C. in 5% CO2-95% air atmosphere.
After 24 h, the culture medium was completed with anti-mitotic compounds (5-fluoro-5′-deoxyuridine and cytosine β-D-arabinofuranoside) and uridine all 10^−5M final. This treatment is aimed at eliminating contaminating fibroblasts and inhibiting the proliferation of Schwann cells.
Cultures were rinsed 48 hrs later (medium without any growth factors) and medium was replaced with fresh medium (200 μl /well) containing cisplatin (3.5 ng/ml; Sigma) added or not with the reference or test compounds.
After 48 h of intoxication, survival rates were measured using an acid phosphatase enzymatic activity assay.
Acid phosphatase activity was measured according to a previously described method (Ueda et al.; 1994). After removal of the culture medium, wells were rinsed twice with PBS (Life Technologies) and incubated with 100 μl of buffer containing 0.1 M sodium acetate (pH5.5), 0.1% Triton X100 (Sigma) and 10 mM p-nitrophenyl phosphate (Sigma) 1 h at 37° C./5% CO2. Reaction was stopped by addition of 10 μl of 1N NaOH (LPCR, Strasbourg, France). Enzyme activity was measured at 405 nm in a microplate reader (Labsystem, France).
Acid phosphatase activity is proportional to the amount of living cells. The results were expressed as percentage O.D. as compared to control conditions (same rinsing and medium replacements, but no intoxication and no treatment with either NGF, riluzol or the test compounds).

[2] = Induction of hyperalgesia; set-up: species or system adult rats; details: rat, in vivo
Excerpt: (§1) The growth of such nerve tissue is evoked and maintained entirely by the increased levels of NGF in adjacent denervated skin.

[3] = test system: basic fibroblast growth factor (bFGF); details: rat astrocyte cultures; cited from earlier work
[4] = Clinical trials, safety in patients; assay type: in vivo; details: over 1400 patients
Excerpt: The objectives of the studies described in this application are to evaluate AIT-082 and related analogues for their potential utility in the treatment of neuropathies associated with oncolytic therapies. The prototypic compound, AIT-082, is currently in Phase 2 clinical trials for Alzheimer's disease (AD) and has been proven safe in over 1400 patients. Its preclinical pharmacological effects include neuroprotection against excitotoxicity, induction of the synthesis and secretion of neurotrophic and pleiotrophic factors, neuroregenerative effects and proliferative effects on neural progenitor cells. The effects of AIT-082 are unlike any product that has been approved or is currently under evaluation for neuropathies associated with oncolytic agents. AIT-082 and its second generation analogues may arrest or retard neurodegenerative processes, promote neuroregeneration and provide symptomatic relief for cancer patients with neuropathies or at high risk of developing neuropathies.

[5] = test system: NGF; details: astrocytes; cited from earlier work
[6] = test system: NGF; experiment: Endogenous NGF levels in skin; set-up: species or system adult rats; details: rat, in vivo
Excerpt: (§2) More specifically, as detailed below in the Example, systematically administered AIT-082 closely mimics the effects both of increased levels of endogenous NGF, and of exogenous NGF. […] The growth of such nerve tissue is evoked and maintained entirely by the increased levels of NGF in adjacent denervated skin.

[7] = test system: BDNF; experiment: BDNF content in spinal cord by ELISA; assay type: in vivo, rat; details: in drinking water for 7 days
Procedure: In vivo Effects on Expression and Secretion of Nerve Growth Factors: In attempt to further explore the effects of AIT-082 that could be beneficial for chemotherapy-induced neuropathy, additional studies were conducted on dose-related effects on BDNF levels in the spinal cord. In these studies, AIT-082 was administered in drinking water for 7 days and BDNF content was measured by ELISA assay.

[8] = test system: S 100; details: astrocytes; cited from earlier work
[9] = test system: TGF; details: astrocytes; cited from earlier work
[10] = test system: NGF; details: rat astrocyte cultures; cited from earlier work
[11] = test system: sciatic nerve; experiment: Vincristine-induced neuropathy, morphometric analysis of sciatic nerve; assay type: in vivo, Dark Agouti rats; details: end of the treatment periods
Procedure: (§3) Animals received vincristine 0.15 mg/ml (IP) per day with the following timing: 5 days of intoxication followed with 2 days without vincristine injection and a new period of 5 days of intox followed with 2 days no intoxication and 2 other days of intoxication with vincristine followed by a 3 week recovery period. The test compound was administered daily from the first day of vincristine injection to the end of the experiments
(§4) Subjects used were 65 female Dark Agouti rats (200-250 g) (n=13 per group). Five groups were used: (1) a vehicle control group; (2) a vincristine-vehicle group;: (3) a vicristine+AIT-082 3 mg/kg IP group; (4) a vicristine+AIT-082 10 mg/kg IP group; and (5) a vicristine+AIT-082 30 mg/kg IP group.
Morphometric Analysis. The morphometric analysis was performed on 3 animals per group on sciatic nerve. It includes the measurements of various parameters according to the following procedure: […]
(3) Morphometric analysis: Sections were observed using an optical microscope (Nikon) and morphometric analysis were performed with a semi-automated digital image analysis software (Morphonerf, Alcatel). Per slice, 4 fields were analyzed, the number of myelinated fibers, density of fibers, diameter of fibers, thickness of myelin sheath, surface of myelin sheath and G factor.

[12] = test system: axonal regeneration; experiment: Axonal regeneration after nerve crush; details: in vivo
Excerpt: as §2

[13] = test system: peripheral nerve sprouting in the skin; experiment: Peripheral (collateral) nerve sprouting in the skin; assay type: in vivo; details: systemically administered, skin of adult rats
Excerpt: as §1

[14] = test system: neurotrophin 3 (NT-3); details: rat astrocyte cultures; cited from earlier work
[15] = test system: Caudal nerve; experiment: Vincristine-induced neuropathy, sensitive nerve conduction velocity (SNCV); assay type: in vivo, Dark Agouti rats
Procedure: as §3, §4
(§5) Electrophysiological Measurements. Electrophysiological recordings were performed once a week using a Neuromatic 2000M electromyographical apparatus (Dantec, France). EMG were performed under Ketamine anesthesia (Imalgène 500®, Merieux, France).
(§6) The measured parameters were: the sensitive nerve conduction velocity (SNCV), the amplitude and the latency compound muscle action potential (CMAP).
Sensitive Nerve Conduction Velocity. Skin electrodes were used. Caudal nerve was stimulated with a series of 20 pulses during 0.2 ms at a supramaximal intensity. The mean of 20 stimulations is included for statistical analysis.
Drug Administration. The test compound was administered daily by the i.p. route from the first day of intoxication with the vincristine to the end of the experiments.

[16] = test system: gastrocnemius muscle after stimulation of the sciatic nerve; experiment: Vincristine-induced neuropathy, EMG amplitude (compound muscle action potential); assay type: in vivo, Dark Agouti rats
Procedure: as §3, §4, §5, §6
Compound Muscle Action Potential and Distal Latency. CPAM was measured in gastrocnemius muscle after stimulation of the sciatic nerve. […] The amplitude (mV) and the latency of the response (ms) are measured. […]

[17] = Vincristine intoxication in rats, body weight; assay type: in vivo, Dark Agouti rats; details: repetitive dosing IP, days 11-19 and 22-31; FIG. 2
Procedure: Animals received vincristine 0.15 mg/ml (IP) per day with the following timing: 5 days of intoxication followed with 2 days without vincristine injection and a new period of 5 days of intox followed with 2 days no intoxication and 2 other days of intoxication with vincristine followed by a 3 week recovery period. The test compound was administered daily from the first day of vincristine injection to the end of the experiments Subjects used were 65 female Dark Agouti rats (200-250 g) (n=13 per group). Five groups were used: (1) a vehicle control group; […] (3) a […]-082 3 mg/kg IP group; (4) a […]-082 10 mg/kg IP group; and (5) a […]-082 30 mg/kg IP group. Behavioral Measurements. The general health and weight of animals were checked every day. Sensorimotor tests were performed twice a week during 6 week study, starting one week before beginning of intoxication (baseline). Drug Administration. The test compound was administered daily by the i.p. route from the first day of intoxication with the vincristine to the end of the experiments.

[18] = prevention of cisplatin toxicity in DRG cells

With `O=C(CCn1cnc2c(=O)[nH]cnc21)NCCCN1CCCC1=O` [AIT-034] the effect on survival ([1]; all concentrations (0.01-100 μM)) was “ineffective”.
In the case of `O=C(CCn1cnc2c(=O)[nH]cnc21)Nc1ccc(C(=O)O)cc1` [AIT-082, N-4-carboxyphenyl-3-(6-oxohydropurin-9-yl) propanamide], the hyperalgesia [2] is given as “without the induction of hyperalgesia; also recorded: did not induce hyperalgesia”, the “production of bFGF mRNA” value [3] is given as “increases the production of mRNAs” and the safety in patients [4] is given as “proven safe”. The “secretion of NGF into the culture medium” value [5] was “enhanced the secretion”, the “endogenous NGF levels in skin” value [6] was “up-regulation” and the “BDNF levels in the spinal cord” value [7] was “significant dose-related increases”. The “secretion of S 100 into the culture medium” value [8] was “enhanced the secretion”, the “secretion of TGF into the culture medium” value [9] was “enhanced the secretion” and the “production of NGF mRNA” value [10] was “increases the production of mRNAs”. The “number of myelinated nerve fibers in sciatic nerve biopsies versus vincristine alone” value [11] was “greater numbers of myelinated nerve fibers”, the “survival compared to cisplatin alone” value ([1]; 1 μM, cisplatin intoxication 48 h, FIG. 1) was “significantly increased survival” and the “effect on survival at higher doses” value ([1]; doses higher than 1 μM) was “diminished progressively”. For the same compound, the “protection against cisplatin induced neurotoxicity” value ([1]; in vitro model, discussion summary) was “statistically significant protection”, the “effect compared with 5 ng/ml of NGF” value [1, 18] was “greater effect” and the “potency relative to riluzole” value [1, 18] was 10 times. The “axonal regeneration after nerve crush” value [12] was “no effect”, the “peripheral / collateral nerve sprouting” value [13] was “induce peripheral nerve sprouting; also recorded: induces vigorous collateral sprouting” and the “production of NT-3 mRNA” value [14] was “increases the production of mRNAs”. For the same compound, the “sensory nerve conduction velocity” value ([15]; day 17 (intoxication phase) and day 31 (recovery phase), 3-30 mg/kg IP) was “significant and dose-related changes”, the “severity of vincristine induced changes in sensory nerve conduction velocity” value ([15]; discussion summary) was “reduced the severity” and the “rate of recovery after the termination of vincristine therapy” value ([15]; discussion summary, SNCV and electromyographic responses) was “improved the rate of recovery”. For the same compound, the EMG amplitude ([16]; days 17 and 23 (intoxication phase), days 31 and 38 (recovery phase), 3-30 mg/kg IP) was “significant and dose-related changes” and the “severity of vincristine induced changes in electromyographic responses” value ([16]; discussion summary) was “reduced the severity”.
With `CC[C@]1(O)C[C@H]2CN(CCc3c([nH]c4ccccc34)[C@@](C(=O)OC)(c3cc4c(cc3OC)N(C=O)[C@H]3[C@@](O)(C(=O)OC)[C@H](OC(C)=O)[C@]5(CC)C=CCN6CC[C@]43[C@@H]65)C2)C1` [Vincristine, vincristine] the “body weight compared to day matched vehicle controls” value [17] was “significant reductions in body weight”.
